From patent publication US9944646B2, “Bicyclic azaheterocyclobenzylamines as PI3K inhibitors” (Incyte Corporation, priority 2012, dated 2018)

The compounds below were run against PI3Kδ (Homo sapiens (Human), UniProt O00329) (assay: PI3K Enzyme Assay (Example A2), [γ-33P]ATP filter plate).
Assay type: biochemical
Outline: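 Recombinant PI3Kδ at 2.9 nM with 50 µM PIP2 in MOPS pH 6.7, MgCl2, DTT, CHAPS, 0.5% DMSO; started with 1000 μM ATP including [γ-33P]ATP, 180 min at room temperature. Phosphorylated product captured on PVDF filter plates and scintillation-counted; IC50 from percent-control activity vs log concentration.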

Chain of PI3Kδ (O00329 whole entry): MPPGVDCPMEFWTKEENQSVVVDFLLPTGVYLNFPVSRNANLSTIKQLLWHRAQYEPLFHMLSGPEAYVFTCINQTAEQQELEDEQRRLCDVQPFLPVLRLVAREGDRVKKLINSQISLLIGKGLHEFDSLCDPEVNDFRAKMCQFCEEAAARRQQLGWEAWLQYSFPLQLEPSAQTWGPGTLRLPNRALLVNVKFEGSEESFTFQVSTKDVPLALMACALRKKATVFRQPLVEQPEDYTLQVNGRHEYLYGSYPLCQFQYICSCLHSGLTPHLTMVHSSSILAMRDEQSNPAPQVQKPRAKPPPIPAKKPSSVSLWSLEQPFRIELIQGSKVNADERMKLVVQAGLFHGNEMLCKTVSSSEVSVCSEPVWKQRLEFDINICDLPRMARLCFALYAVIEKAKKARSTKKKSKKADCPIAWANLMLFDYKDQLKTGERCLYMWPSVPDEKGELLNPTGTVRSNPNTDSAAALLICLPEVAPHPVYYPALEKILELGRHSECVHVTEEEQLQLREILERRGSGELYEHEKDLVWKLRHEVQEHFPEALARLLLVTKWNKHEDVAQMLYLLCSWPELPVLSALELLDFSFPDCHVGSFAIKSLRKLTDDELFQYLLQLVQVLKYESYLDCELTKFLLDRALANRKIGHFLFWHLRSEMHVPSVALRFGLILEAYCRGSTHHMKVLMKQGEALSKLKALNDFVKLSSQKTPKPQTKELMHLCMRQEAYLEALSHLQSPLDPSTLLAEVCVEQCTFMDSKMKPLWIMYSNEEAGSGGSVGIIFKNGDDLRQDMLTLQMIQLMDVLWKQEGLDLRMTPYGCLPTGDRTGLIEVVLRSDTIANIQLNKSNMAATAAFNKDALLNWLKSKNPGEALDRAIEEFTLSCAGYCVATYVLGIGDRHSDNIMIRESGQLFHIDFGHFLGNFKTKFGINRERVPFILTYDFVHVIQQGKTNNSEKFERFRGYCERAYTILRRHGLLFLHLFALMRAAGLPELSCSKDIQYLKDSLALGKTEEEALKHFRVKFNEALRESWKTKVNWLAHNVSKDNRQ
Chain of PI3Kδ (P27986 whole entry partner): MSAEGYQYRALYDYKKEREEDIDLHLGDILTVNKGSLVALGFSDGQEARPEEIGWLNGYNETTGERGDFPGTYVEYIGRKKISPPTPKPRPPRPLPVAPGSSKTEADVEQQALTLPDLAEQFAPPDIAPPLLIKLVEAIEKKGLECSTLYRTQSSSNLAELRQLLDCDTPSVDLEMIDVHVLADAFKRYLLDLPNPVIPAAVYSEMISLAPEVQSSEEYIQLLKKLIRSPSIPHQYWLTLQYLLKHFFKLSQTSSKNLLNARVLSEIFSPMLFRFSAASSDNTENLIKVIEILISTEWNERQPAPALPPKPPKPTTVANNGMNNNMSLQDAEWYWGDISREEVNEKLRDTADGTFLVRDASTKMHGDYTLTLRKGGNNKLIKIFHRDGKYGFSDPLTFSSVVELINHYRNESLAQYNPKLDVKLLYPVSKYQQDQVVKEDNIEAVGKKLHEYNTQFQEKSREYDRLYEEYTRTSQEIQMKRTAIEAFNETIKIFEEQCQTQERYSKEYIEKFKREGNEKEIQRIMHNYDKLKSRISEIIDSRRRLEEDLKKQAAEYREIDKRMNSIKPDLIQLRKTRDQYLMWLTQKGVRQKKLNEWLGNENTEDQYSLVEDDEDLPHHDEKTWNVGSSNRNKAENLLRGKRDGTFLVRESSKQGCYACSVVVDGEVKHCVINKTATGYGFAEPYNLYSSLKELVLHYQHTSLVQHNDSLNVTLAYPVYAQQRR

IC50 [nM] | SMILES
≤ 100 | Cc1nn(C(C)c2cc(Cl)c(C#N)c3c2OCCN(C2CN(CCO)C2)C3)c2ncnc(N)c12 (stereo not shown) [Example 47, 9-[1-(4-amino-3-methyl-1H-pyrazolo[3,4-d]pyrimidin-1-yl)ethyl]-7-chloro-4-[1-(2-hydroxyethyl)azetidin-3-yl]-2,3,4,5-tetrahydro-1,4-benzoxazepine-6-carbonitrile]
≤ 100 | Cc1nn(C(C)c2cc(Cl)c(F)c3c2OCCN(C2CN(C(=O)N(C)C)C2)C3)c2ncnc(N)c12 (stereo not shown) [Example 73, 3-[9-[1-(4-amino-3-methyl-1H-pyrazolo[3,4-d]pyrimidin-1-yl)ethyl]-7-chloro-6-fluoro-2,3-dihydro-1,4-benzoxazepin-4(5H)-yl]-N,N-dimethylazetidine-1-carboxamide]
≤ 100 | Cc1nn(C(C)c2cc(Cl)c(F)c3c2OCCN(C2CN(S(=O)(=O)N(C)C)C2)C3)c2ncnc(N)c12 (stereo not shown) [Example 74, 3-[9-[1-(4-amino-3-methyl-1H-pyrazolo[3,4-d]pyrimidin-1-yl)ethyl]-7-chloro-6-fluoro-2,3-dihydro-1,4-benzoxazepin-4(5H)-yl]-N,N-dimethylazetidine-1-sulfonamide]
≤ 100 | CCC(=O)N1CC(N2Cc3c(F)c(Cl)cc(C(C)n4nc(C)c5c(N)ncnc54)c3OC(C)C2)C1 (stereo not shown) [Example 76, 1-{1-[7-chloro-6-fluoro-2-methyl-4-(1-propionylazetidin-3-yl)-2,3,4,5-tetrahydro-1,4-benzoxazepin-9-yl]ethyl}-3-methyl-1H-pyrazolo[3,4-d]pyrimidin-4-amine]
≤ 100 | Cc1nn([C@@H](C)c2cc(Cl)c(F)c3c2O[C@@H](C)CN(C2CN(C[C@@H](C)O)C2)C3)c2ncnc(N)c12 [Example 86, (2R)-1-{3-[(2S)-9-[(1S)-1-(4-amino-3-methyl-1H-pyrazolo[3,4-d]pyrimidin-1-yl)ethyl]-7-chloro-6-fluoro-2-methyl-2,3-dihydro-1,4-benzoxazepin-4(5H)-yl]azetidin-1-yl}propan-2-ol]
≤ 100 | CCC(=O)N1CC(N2CCOc3c(C(C)n4nc(C)c5c(N)ncnc54)cc(Cl)c(C#N)c3C2)C1 (stereo not shown) [Example 89, 9-[1-(4-amino-3-methyl-1H-pyrazolo[3,4-d]pyrimidin-1-yl)ethyl]-7-chloro-4-(1-propionylazetidin-3-yl)-2,3,4,5-tetrahydro-1,4-benzoxazepine-6-carbonitrile]
≤ 100 | Cc1nn(C(C)c2cc(Cl)c(C#N)c3c2OCCN(C2CN(S(C)(=O)=O)C2)C3)c2ncnc(N)c12 (stereo not shown) [Example 90, 9-[1-(4-amino-3-methyl-1H-pyrazolo[3,4-d]pyrimidin-1-yl)ethyl]-7-chloro-4-[1-(methylsulfonyl)azetidin-3-yl]-2,3,4,5-tetrahydro-1,4-benzoxazepine-6-carbonitrile]
≤ 100 | Cc1nn(C(C)c2cc(Cl)c(C#N)c3c2OCCN(C2CN(C(=O)NC(C)C)C2)C3)c2ncnc(N)c12 (stereo not shown) [Example 91, 3-[9-[1-(4-amino-3-methyl-1H-pyrazolo[3,4-d]pyrimidin-1-yl)ethyl]-7-chloro-6-cyano-2,3-dihydro-1,4-benzoxazepin-4(5H)-yl]-N-isopropylazetidine-1-carboxamide]
≤ 100 | CCOC(=O)N1CC(N2CCOc3c(C(C)n4nc(C)c5c(N)ncnc54)cc(Cl)c(C#N)c3C2)C1 (stereo not shown) [Example 92, ethyl 3-[9-[1-(4-amino-3-methyl-1H-pyrazolo[3,4-d]pyrimidin-1-yl)ethyl]-7-chloro-6-cyano-2,3-dihydro-1,4-benzoxazepin-4(5H)-yl]azetidine-1-carboxylate]

Second part, the compound before the results:

SMILES | IC50 [nM]
Cc1nn(C(C)c2cc(Cl)c(C#N)c3c2O[C@@H](C)CN(C2CN(CCO)C2)C3)c2ncnc(N)c12 (stereo partly drawn) [Example 56, (2S)-9-[1-(4-Amino-3-methyl-1H-pyrazolo[3,4-d]pyrimidin-1-yl)ethyl]-7-chloro-4-[1-(2-hydroxyethyl)azetidin-3-yl]-2-methyl-2,3,4,5-tetrahydro-1,4-benzoxazepine-6-carbonitrile] | ≤ 100
Cc1nn(C(C)c2cc(Cl)c(C#N)c3c2OCCN(CCO)C3)c2ncnc(N)c12 (stereo not shown) [Example 58, 9-[1-(4-Amino-3-methyl-1H-pyrazolo[3,4-d]pyrimidin-1-yl)ethyl]-7-chloro-4-(2-hydroxyethyl)-2,3,4,5-tetrahydro-1,4-benzoxazepine-6-carbonitrile] | ≤ 100
Cc1nn(C(C)c2cc(Cl)c(F)c3c2OC(C)CN(C2CN(S(C)(=O)=O)C2)C3)c2ncnc(N)c12 (stereo not shown) [Example 75, 1-(1-{7-chloro-6-fluoro-2-methyl-4-[1-(methylsulfonyl)azetidin-3-yl]-2,3,4,5-tetrahydro-1,4-benzoxazepin-9-yl}ethyl)-3-methyl-1H-pyrazolo[3,4-d]pyrimidin-4-amine] | ≤ 100
Cc1nn([C@@H](C)c2cc(Cl)c(F)c3c2O[C@@H](C)CN(C2CN(C[C@H](C)O)C2)C3)c2ncnc(N)c12 [Example 85, (2S)-1-{3-[(2S)-9-[(1S)-1-(4-amino-3-methyl-1H-pyrazolo[3,4-d]pyrimidin-l-yl)ethyl]-7-chloro-6-fluoro-2-methyl-2,3-dihydro-1,4-benzoxazepin-4(5H)-yl]azetidin-1-yl}propan-2-ol] | ≤ 100

What follows are compounds tested against PI3Kδ (p110δ/p85α) (Homo sapiens (Human), UniProt O00329) (assay: PI3Kδ Scintillation Proximity Assay (Example A3)).
Assay type: biochemical
Excerpt: Example A3: PI3Kδ Scintillation Proximity Assay
[γ-^33P]ATP (10 mCi/mL) was purchased from Perkin-Elmer (Waltham, Mass.). Lipid kinase substrate, D-myo-Phosphatidylinositol 4,5-bisphosphate (PtdIns(4,5)P2)D (+)-sn-1,2-di-O-octanoylglyceryl, 3-O-phospho linked (PIP2), CAS 204858-53-7, was purchased from Echelon Biosciences (Salt Lake City, Utah). PI3Kδ (p110δ/p85α) was purchased from Millipore (Bedford, Mass.). ATP, MgCl2, DTT, EDTA, MOPS and CHAPS were purchased from Sigma-Aldrich (St. Louis, Mo.). Wheat Germ Agglutinin (WGA) YSi SPA Scintillation Beads was purchased from GE healthcare life sciences (Piscataway, N.J.).
The kinase reaction was conducted in polystyrene 384-well matrix white plate from Thermo Fisher Scientific in a final volume of 25 μL. Inhibitors were first diluted serially in DMSO and added to the plate wells before the addition of other reaction components. The final concentration of DMSO in the assay was 0.5%. The PI3K assays were carried out at room temperature in 20 mM MOPS, pH 6.7, 10 mM MgCl2, 5 mM DTT and CHAPS 0.03%. Reactions were initiated by the addition of ATP, the final reaction mixture consisted of 20 µM PIP2, 20 µM ATP, 0.2 μCi [γ-^33P]ATP, 4 nM PI3Kδ. Reactions were incubated for 210 min and terminated by the addition of 40 μL SPA beads suspended in quench buffer: 150 mM potassium phosphate pH 8.0, 20% glycerol. 25 mM EDTA, 400 µM ATP. The final concentration of SPA beads was 1.0 mg/mL. After the plate sealing, plates were shaken overnight at room temperature and centrifuged at 1800 rpm for 10 minutes, the radioactivity of the product was determined by scintillation counting on Topcount (Perkin-Elmer). IC50 determination was performed by fitting the curve of percent control activity versus the log of the inhibitor concentration using the GraphPad Prism 3.0 software. […] IC50 data for Examples 1-25 is presented in Table 3 for PI3Kδ as determined by the assay of Example A2 or A3 as indicated

Chain of PI3Kδ (p110δ/p85α) (O00329 whole entry): as the sequence (O00329 whole entry) above
Chain of PI3Kδ (p110δ/p85α) (P27986 whole entry partner): as the sequence (P27986 whole entry partner) above

IC50 [nM] | SMILES
≤ 100 | Cc1c(Cl)cc(C(C)n2nc(C)c3c(N)ncnc32)c2c1CN(C1CN(C(=O)OC(C)(C)C)C1)CCO2 (stereo not shown) [Example 3, tert-Butyl 3-[9-[1-(4-amino-3-methyl-1H-pyrazolo[3,4-d]pyrimidin-1-yl)ethyl]-7-chloro-6-methyl-2,3-dihydro-1,4-benzoxazepin-4(5H)-yl]azetidine-1-carboxylate]
≤ 100 | CC(=O)N1CC(N2CCOc3c(C(C)n4nc(C)c5c(N)ncnc54)cc(Cl)c(C)c3C2)C1 (stereo not shown) [Example 4, 1-{1-[4-(1-Acetylazetidin-3-yl)-7-chloro-6-methyl-2,3,4,5-tetrahydro-1,4-benzoxazepin-9-yl]ethyl}-3-methyl-1H-pyrazolo[3,4-d]pyrimidin-4-amine]
≤ 100 | Cc1c(Cl)cc(C(C)n2nc(C)c3c(N)ncnc32)c2c1CN(C1CCC1)CCO2 (stereo not shown) [Example 5, 1-[1-(7-Chloro-4-cyclobutyl-6-methyl-2,3,4,5-tetrahydro-1,4-benzoxazepin-9-yl)ethyl]-3-methyl-1H-pyrazolo[3,4-d]pyrimidin-4-amine bis(trifluoroacetate)]

The remaining lines, values behind:

SMILES | IC50 [nM]
Cc1c(Cl)cc(C(C)n2nc(C)c3c(N)ncnc32)c2c1CN(C(=O)OC(C)(C)C)CCO2 (stereo not shown) [Example 1, tert-Butyl 9-[1-(4-amino-3-methyl-1H-pyrazolo[3,4-d]pyrimidin-1-yl)ethyl]-7-chloro-6-methyl-2,3-dihydro-1,4-benzoxazepine-4(5H)-carboxylate] | 100 to 500
Cc1c(Cl)cc(C(C)n2nc(C)c3c(N)ncnc32)c2c1CNCCO2 (stereo not shown) [Example 2, 1-[1-(7-Chloro-6-methyl-2,3,4,5-tetrahydro-1,4-benzoxazepin-9-yl)ethyl]-3-methyl-1H-pyrazolo[3,4-d]pyrimidin-4-amine bis(trifluoroacetate)] | ≤ 100
Cc1c(Cl)cc(C(C)n2nc(C)c3c(N)ncnc32)c2c1CN(C1CCCC1)CCO2 (stereo not shown) [Example 6, 1-[1-(7-Chloro-4-cyclopentyl-6-methyl-2,3,4,5-tetrahydro-1,4-benzoxazepin-9-yl)ethyl]-3-methyl-1H-pyrazolo[3,4-d]pyrimidin-4-amine bis(trifluoroacetate)] | ≤ 100
Cc1c(Cl)cc(C(C)n2nc(C)c3c(N)ncnc32)c2c1CN(C1CCCCC1)CCO2 (stereo not shown) [Example 7, 1-[1-(7-Chloro-4-cyclohexyl-6-methyl-2,3,4,5-tetrahydro-1,4-benzoxazepin-9-yl)ethyl]-3-methyl-1H-pyrazolo[3,4-d]pyrimidin-4-amine bis(trifluoroacetate)] | ≤ 100
COC1CCC(N2CCOc3c(C(C)n4nc(C)c5c(N)ncnc54)cc(Cl)c(C)c3C2)CC1 (stereo not shown) [Example 8, 1-{1-[7-Chloro-4-(4-methoxycyclohexyl)-6-methyl-2,3,4,5-tetrahydro-1,4-benzoxazepin-9-yl]ethyl}-3-methyl-1H-pyrazolo[3,4-d]pyrimidin-4-amine bis(trifluoroacetate)] | ≤ 100
Cc1c(Cl)cc(C(C)n2nc(C)c3c(N)ncnc32)c2c1CN(C)CCO2 (stereo not shown) [Example 9, 1-[1-(7-Chloro-4,6-dimethyl-2,3,4,5-tetrahydro-1,4-benzoxazepin-9-yl)ethyl]-3-methyl-1H-pyrazolo[3,4-d]pyrimidin-4-amine bis(trifluoroacetate)] | ≤ 100
